Assay results reported in patent US20230285371A1 (THE SECOND XIANGYA HOSPITAL OF CENTRAL SOUTH UNIVERSITY, priority 2020, published 2023).
“And” between values parts separate entries of the source, which are not always exact repeats. Identical values can stand only once. Marks after values point to notes of the source that are not given here.

Legend:
[1] = test system: female NOD mice (type 1 diabetes induced by cyclophosphamide); test: Prevention of cyclophosphamide-induced type 1 diabetes in NOD mice; assay type: in vivo; settings: cyclophosphamide-induced T1D
From the text: (§1) I. Materials and Methods • 1. Mice: The most widely used spontaneous type 1 diabetes mouse model for the study of type 1 diabetes—NOD mice were selected. Since the incidence rate of spontaneous type 1 diabetes in female NOD mice is much higher than that in male mice, female NOD mice were used for experiments in the present invention. The female NOD mice of the present invention were purchased from Shanghai Model Organisms Center, Inc. • 2. Preparation of medicine: Carboxymethylcellulose (CMC) was used as the solvent. […] Injection of cyclophosphamide: 300 mg/kg body weight of cyclophosphamide was injected into NOD mice so as to rapidly induce the onset of type 1 diabetes. • 5. Measurement of blood sugar: About 1 mm of the tail tip of the mice was cut off, the first drop of blood was wiped off with gauze, then the second drop of blood flew out naturally, which was drawn with a blood sugar test strip, and the reading was recorded. It can be diagnosed type 1 diabetes when two consecutive blood sugar readings were both >250 mg/dl. • 6. […] After 4 weeks of gavage, each mouse was injected with cyclophosphamide to induce the onset of type 1 diabetes, and the incidence rate of type 1 diabetes in the mice was observed and counted.

[2] = test system: STAT4 and p-STAT4; test: STAT4 phosphorylation in IL-12-treated Naive CD4+ T cells, western blot; assay type: cell-based, C57BL/6J mice; settings: IL-12, 48 hours
Protocol: The cells were collected after 48 hours to extract proteins for western blot (WB) to detect the protein levels of STAT4 and p-STAT4.

[3] = test system: CD4+ T cell subsets (Th1, Th2, Th17 and Treg) in the pancreas; test: CD4+ T cell subsets in pancreas of NOD mice, flow cytometry; assay type: in vivo
From the text: (§2) From the age of 10 weeks, the mice were gavaged for 4 weeks, and injected with cyclophosphamide after the gavage for two weeks to induce the onset of the disease.

[4] = test system: female NOD mice (spontaneous type 1 diabetes); test: Prevention of spontaneous type 1 diabetes in NOD mice; assay type: in vivo; settings: spontaneous T1D
From the text: as §1

[5] = test system: NOD mice (insulitis); settings: gavage once a day for 4 weeks from 8 weeks of age, nondiabetic mice, HE staining
[6] = test system: Th1 cell marker genes (Tbet and IFNγ) and pro-inflammatory cytokines (IL-1β, IL-6 and TNF-α) in the pancreas; test: Gene expression in pancreas of NOD mice, RT-PCR; assay type: in vivo
From the text: as §2

[7] = test system: Naive CD4+ T cells; test: Cytotoxicity to T cells: cell count after 48 hours; assay type: cell-based, C57BL/6J mice
[8] = test system: differentiation of Th1 cells induced by IL-12 (Naive CD4+ T cells); test: In vitro inhibition assay: IL-12-induced Th1 differentiation, flow cytometry; assay type: cell-based, C57BL/6J mice; settings: for Th1 (%) Average / Th1 (%): IL-12, 48 hours; for Th1 (%) Average: average of 3 wells; for Th1 (%): individual parallel wells
Protocol: C57BL/6J mice were sacrificed, the spleen was taken and disrupted in PBS containing 2% fetal bovine serum (FBS). The cell suspension was filtered through a 70 μm nylon filter to remove tissue debris. The obtained cell suspension was centrifuged at 300 g for 10 min, and the cells were resuspended in PBS containing 2% fetal bovine serum (FBS) to maintain a cell concentration of 1×10^8 nucleated cells/mL. Naive CD4+ T cells were extracted with the EasySep™ Mouse Naive CD4+ T Cell Isolation Kit ([…] Technologies), and the extracted Naive CD4+ T cells were cultured in RPMI-1640 medium (Gibco) containing 10% fetal bovine serum (Gibco) and 1% penicillin/streptomycin (Gibco).
The cells were collected after 48 hours, and subjected to flow cytometry to detect the proportion of Th1 cells.

[9] = Sorafenib group vs solvent group
[10] = gavage 4 weeks, cyclophosphamide after 2 weeks, individual values
[11] = relative to vehicle, individual mice

Sorafenib
Survival rate (%) ([1]; 10 mg/kg gavage for 7 weeks, day 105): 94.12%
Survival rate (%) ([1]; 10 mg/kg gavage for 7 weeks, day 112): 88.24%
Survival rate (%) ([1]; 10 mg/kg gavage for 7 weeks, day 119): 82.35%
Survival rate (%) ([1]; 10 mg/kg gavage for 7 weeks, day 126): 76.47%
Survival rate (%) ([1]; 10 mg/kg gavage for 7 weeks, day 140, P<0.05 vs vehicle (35.71)): 76.47* %
Survival rate (%) ([1]; 10 mg/kg gavage once a day from 8 weeks of age for 7 weeks, cyclophosphamide 300 mg/kg after 4 weeks, n=17, day 0): 100%
preventive effect still existed after the gavage was stopped, lasted to ([1]; gavage stopped after 7 weeks): 20 weeks
incidence rate of type 1 diabetes ([1]; more than half of the CMC group developed T1D): 24%
effect on phosphorylation of STAT4 [2]: can inhibit the phosphorylation of STAT4
proportion of Th1 cells in the pancreas [3, 9]: significantly reduced
proportions of other T cell subsets in the pancreas [3, 9]: remained unchanged
Th1 (%) in pancreas ([3]; gavage 4 weeks from 10 weeks of age, cyclophosphamide after 2 weeks, individual values): 6.63% and 3.58%
Th1 (%) in pancreas, Average ([3]; gavage 4 weeks, cyclophosphamide after 2 weeks, P<0.05 vs vehicle (21.2)): 5.11* %
Th2 (%) in pancreas [3, 10]: 9.75% and 12.9% and 7.91%
Th17 (%) in pancreas [3, 10]: 3.28% and 0.68% and 1.19%
Tregs (%) in pancreas [3, 10]: 4.6% and 4.31% and 2.25% and 4.37%
Th17 (%) in pancreas, Average ([3]; gavage 4 weeks, cyclophosphamide after 2 weeks, vehicle 1.31): 1.72%
Tregs (%) in pancreas, Average ([3]; gavage 4 weeks, cyclophosphamide after 2 weeks, vehicle 4.345): 3.88%
Th2 (%) in pancreas, Average ([3]; gavage 4 weeks, cyclophosphamide after 2 weeks, vehicle 9.45): 10.19%
Survival rate (%) ([4]; 10 mg/kg gavage once a day for 12 weeks, day 98): 91.30%
Survival rate (%) ([4]; 10 mg/kg gavage once a day for 12 weeks, day 119): 73.91%
Survival rate (%) ([4]; 10 mg/kg gavage once a day for 12 weeks, day 140): 65.22%
Survival rate (%) ([4]; 10 mg/kg gavage once a day for 12 weeks, day 154): 60.87%
Survival rate (%) ([4]; 10 mg/kg gavage once a day for 12 weeks, day 168): 52.17%
Survival rate (%) ([4]; 10 mg/kg gavage once a day for 12 weeks, day 224, P<0.1 vs vehicle (25)): 52.17^+ %
Survival rate (%) ([4]; 10 mg/kg gavage once a day from 8 weeks of age for 12 weeks, n=23, day 0): 100%
incidence rate of type 1 diabetes ([4]; at 32 weeks of age, CMC group 75%): 48%
insulitis compared with the CMC group [5]: significantly improved
IFNγ gene expression level in pancreas, Average ([6]; P<0.05 vs vehicle (1)): 0.27*
Il-1β gene expression level in pancreas, Average ([6]; P<0.05 vs vehicle (1)): 0.37*
TNFα gene expression level in pancreas, Average ([6]; P<0.05 vs vehicle (1)): 0.27*
Tbet gene expression level in pancreas, Average ([6]; P<0.1 vs vehicle (1.04)): 0.44^+
gene expression levels of Th1 cell marker genes (Tbet and IFNγ) and pro-inflammatory cytokines (IL-1β, IL-6 and TNF-α) in the pancreas [6, 9]: significantly reduced
IFNγ gene expression level in pancreas [6, 11]: 0.16 and 0.07 and 0.58
IL-6 gene expression level in pancreas [6, 11]: 0.64 and 0.12
Il-1β gene expression level in pancreas [6, 11]: 0.48 and 0.18 and 0.46
TNFα gene expression level in pancreas [6, 11]: 0.18 and 0.07 and 0.55
Tbet gene expression level in pancreas [6, 11]: 0.27 and 0.2 and 0.86
IL-6 gene expression level in pancreas, Average ([6]; vehicle 1): 0.38
Th0 (×10^4) Average ([7]; Sorafenib 1 μg/ml, 0 μg/ml control 9.47): 9.33 ×10^4
Th0 (×10^4) Average ([7]; Sorafenib 2 μg/ml): 8.1 ×10^4
Th0 (×10^4) Average ([7]; Sorafenib 4 μg/ml): 8 ×10^4
effect on IL-12-induced Th1 differentiation ([8]; 0, 1, 2, 4 μg/ml, 48 hours): inhibit IL-12-induced Th1 differentiation in a dose-dependent manner
Th1 (%) Average ([8]; Sorafenib 1 μg/ml, 0 μg/ml control 85.27): 80.43%
Th1 (%) ([8]; Sorafenib 1 μg/ml): 77.9% and 76% and 87.4%
Th1 (%) Average ([8]; Sorafenib 2 μg/ml, P<0.01 vs 0 μg/ml): 68.53** %
Th1 (%) ([8]; Sorafenib 2 μg/ml): 67.8% and 68.5% and 69.3%
Th1 (%) Average ([8]; Sorafenib 4 μg/ml, P<0.001 vs 0 μg/ml): 15.66*** %
Th1 (%) ([8]; Sorafenib 4 μg/ml): 24.9% and 12.9% and 9.17%
